According to patent US7326403B2, “Radioactive iodine-labeled compound” (FUJIFILM Corporation, priority 2003, dated 2008):

How the values were obtained:
[1] = test system: LS180 (human colon cancer cell); experiment: Uptake experiment in tumor cells (LS180); assay type: cell-based; conditions: for uptake, percent dose converted to 100,000 cells: 0.5 μCi, mean ± S.D.
Description: (§1) (i) LS180 (Human Colon Cancer Cell), SHIN-III (Human Ovary Cancer Cell) and U87MG (Glioma)
(§2) A commercially available medium, RPMI1640 (Nissui, 5.1 g), was dissolved in extra pure water (500 ml), autoclaved, and added with L-glutamine (0.15 g), Meylon (7% aqueous sodium hydrogencarbonate, a pharmaceutical preparation for injection, 14 ml) and FBS (55 ml) in a clean bench to prepare a medium. Cells were cultured in this medium.
(§3) Cells cryopreserved in a medium containing 10% DMSO were thawed, transferred to a 15-ml Falcon tube, and added with PBS to a volume of 5 ml. The mixture was centrifuged at 1300 rpm for 5 minutes. The supernatant was removed by suction, and the precipitates were suspended in PBS (5 ml). The suspension was centrifuged again at 1300 rpm for 5 minutes. The supernatant was removed by suction, and the precipitates were suspended in a medium (10 ml), inoculated in a 10-cm dish and left standing at 37° C. in a 5% CO2 incubator.
(§4) After 3 days, when the cells were proliferated to 80 to 90% of the 10-cm dish, the cells were subcultured in a 15-cm dish.
(§5) The 10-cm dish was taken out from the incubator, and the supernatant was removed by suction. The cells were washed three times with PBS, added with trypsin-EDTA (0.05% trypsin, 0.53 mM EDTA tetrasodium salt, 1 ml) and PBS (1 ml) and left standing in a CO2 incubator for 10 minutes. The dish was taken out from the incubator, and separation of the cells was observed. Then, the cells were transferred to a 15-ml Falcon tube. The cells were added with PBS to a volume of 5 ml and centrifuged at 1300 rpm for 5 minutes, and the supernatant was removed by suction. The precipitates were suspended in PBS (5 ml) and centrifuged at 1300 rpm for 5 minutes, and the supernatant was removed by suction. The precipitates were suspended in a medium (8 ml), and inoculated in a volume of 4 ml each to two of 15-cm dishes, to which the medium (16 ml) was added beforehand, and left standing at 37° C. in a 5% CO2 incubator.
(§6) Two days before the uptake experiment, the cells were inoculated on a 24-well plate ([…] of cell-suspended medium/well, 5 wells/plate per one type of cell). […] For the 4 wells to which the compound of the present invention was added, the cells were separated with 0.2 N NaOH and subjected to measurement of radioactivity. For the remaining 1 well, trypsin-EDTA was added to separate the cells, and the number of cells was counted by using a blood cell counter. Percent doses, which were converted to values for 100,000 cells based on the number of cells and radioactivity, and ratios relative to the normal cells (NIH3T3) were calculated. […]

[2] = test system: SHIN-III (human ovary cancer cell); experiment: Uptake experiment in tumor cells (SHIN-III); assay type: cell-based; conditions: for uptake, percent dose converted to 100,000 cells: SHIN-III, 0.5 μCi, mean ± S.D.
Description: as §1, §2, §3, §4, §5, §6

U87MG (glioma) = experiment: Uptake experiment in tumor cells (U87MG); assay type: cell-based; conditions: for uptake, percent dose converted to 100,000 cells: U87MG, 0.5 μCi, mean ± S.D.
Description: as §1, §2, §3, §4, §5, §6

[3] = test system: NIH3T3 (fibroblast, control); experiment: Uptake experiment in normal control cells (NIH3T3); assay type: cell-based; conditions: 0.5 μCi, mean ± S.D.
Description: (ii) NIH3T3 (Fibroblast, Control)
A commercially available DMEM medium (Nissui) was dissolved in extra pure water (500 ml), autoclaved, and added with L-glutamine (0.15 g), Meylon (7% aqueous sodium hydrogencarbonate, a pharmaceutical preparation for injection, 14 ml) and FBS (55 ml) in a clean bench to prepare a medium. Cells were cultured in this medium.
as §3
After 1 week, when the cells were proliferated to 80 to 90% of the 10-cm dish, the cells were subcultured in a 15-cm dish.
The 10-cm dish was taken out from the incubator, and the supernatant was removed by suction. The cells were washed three times with PBS, added with trypsin-EDTA (0.05% trypsin, 0.53 mM EDTA tetrasodium salt, 1 ml) and PBS (1 ml) and left standing in a CO2 incubator for 10 minutes. The dish was taken out from the incubator, and separation of the cells was observed. Then, the cells were transferred to a 15-ml Falcon tube. […]
as §6

[4] = test system: SHIN-III human ovary cancer cells (tumor tissue vs muscle tissue); experiment: Distribution experiment in vivo, nude mice transplanted with SHIN-III; conditions: 18.5 kBq via caudal vein, 5, 10 and 30 minutes, FIG. 1
Description: 1.0×10^6 cells of SHIN-III human ovary cancer cells were subcutaneously inoculated in the femoral region of nude mice (male, 5-week old). […] After 5 minutes, 10 minutes and 30 minutes, the mice were sacrificed, and the weight and radioactivity of each organ were measured.

CCn1c(=O)/c(=C2\Sc3ccccc3N2Cc2ccc([125I])cc2)s/c1=C\c1cccc[n+]1CC [the compound of the present invention]
uptake, percent dose converted to 100,000 cells ([1]; LS180, after 30 minutes): 3.37 ± 0.31 % dose/100000 cells | uptake, percent dose converted to 100,000 cells ([1]; LS180, after 1 hour): 5.33 ± 0.43 % dose/100000 cells | uptake, percent dose converted to 100,000 cells ([1]; LS180, after 3 hours): 10.2 ± 0.97 % dose/100000 cells | uptake ratio relative to the normal cells (NIH3T3) ([1]; LS180 vs NIH3T3): about three | uptake ratio relative to the normal cells (NIH3T3) ([2]; SHIN-III vs NIH3T3): about seven | uptake, percent dose converted to 100,000 cells ([2]; after 30 minutes): 6.26 ± 0.73 % dose/100000 cells | uptake, percent dose converted to 100,000 cells ([2]; after 1 hour): 11.7 ± 1.16 % dose/100000 cells | uptake, percent dose converted to 100,000 cells ([2]; after 3 hours): 25.2 ± 2.42 % dose/100000 cells | uptake ratio relative to the normal cells (NIH3T3) (U87MG (glioma); U87MG vs NIH3T3): about 7 times | uptake, percent dose converted to 100,000 cells (U87MG (glioma); after 30 minutes): 3.19 ± 1.86 % dose/100000 cells | uptake, percent dose converted to 100,000 cells (U87MG (glioma); after 1 hour): 3.07 ± 0.09 % dose/100000 cells | uptake, percent dose converted to 100,000 cells (U87MG (glioma); after 3 hours): 5.32 ± 0.70 % dose/100000 cells | uptake, percent dose converted to 100,000 cells ([3]; after 30 minutes): 1.40 ± 0.03 % dose/100000 cells | uptake, percent dose converted to 100,000 cells ([3]; after 1 hour): 2.12 ± 0.14 % dose/100000 cells | uptake, percent dose converted to 100,000 cells ([3]; after 3 hours): 3.34 ± 0.18 % dose/100000 cells | accumulation in the tumor tissue and muscle tissue [4]: accumulate in a higher concentration in the tumor tissue than in the muscle
